# Measurements taken from US10851064B2, “ACSS2 inhibitors and methods of use thereof” (METABOMED LTD., priority 2017, dated 2020).
# Several values for one entry are separate records, joined by “and”; a condition that tells them apart may be missing. Equal values may be shown once.
# Molecular target: ACSS2 (Homo sapiens, UniProt Q9NR19)
# Experiment: biochemical
# 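Further: Cell-free human ACSS2 enzyme reaction with acetate, CoA and ATP, 90 min at 37 C, coupled to pyrophosphatase, phosphate release detected by Biomol Green absorbance at 620 nm.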
# Method: ACSS2 Cell-Free Activity Assay (Cell-Free IC50)
# The assay is based on a coupling reaction with Pyrophosphatase: ACSS2 is converting ATP+CoA+Acetate=>AMP+pyrophosphate+Acetyl-CoA (Ac-CoA). Pyrophosphatase converts pyrophosphate, a product of the ACSS2 reaction, to phosphate which can be detected by measuring the absorbance at 620 nm after incubation with the Biomol green reagent (Enzo life Science, BML-AK111).
# Cell-free IC50 Determination:
# At the end of the reaction, Biomol Green was added for 30 minutes at RT and the activity was measured by reading the absorbance at 620 nm.
# ACSS2, sequence (Q9NR19 whole entry): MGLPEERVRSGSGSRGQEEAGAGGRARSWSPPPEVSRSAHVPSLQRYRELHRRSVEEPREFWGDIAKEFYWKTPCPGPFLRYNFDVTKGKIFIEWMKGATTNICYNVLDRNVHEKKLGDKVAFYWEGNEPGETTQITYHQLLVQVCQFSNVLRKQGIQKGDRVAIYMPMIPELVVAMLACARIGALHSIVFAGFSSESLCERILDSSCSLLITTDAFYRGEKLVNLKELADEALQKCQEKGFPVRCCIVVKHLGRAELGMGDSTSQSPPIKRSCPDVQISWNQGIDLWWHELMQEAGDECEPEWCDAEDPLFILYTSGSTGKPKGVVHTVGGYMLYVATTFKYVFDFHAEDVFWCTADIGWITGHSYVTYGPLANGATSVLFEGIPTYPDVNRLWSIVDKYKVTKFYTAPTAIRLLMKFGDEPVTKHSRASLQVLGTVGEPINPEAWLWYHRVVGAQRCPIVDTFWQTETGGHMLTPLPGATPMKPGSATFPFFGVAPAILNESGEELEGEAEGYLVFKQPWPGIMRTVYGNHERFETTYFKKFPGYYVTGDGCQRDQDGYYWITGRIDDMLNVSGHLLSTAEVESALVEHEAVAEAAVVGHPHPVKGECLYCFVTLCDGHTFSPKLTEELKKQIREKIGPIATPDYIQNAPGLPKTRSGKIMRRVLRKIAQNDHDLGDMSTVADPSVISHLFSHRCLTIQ
row,Structure (SMILES),IC50
1,CC1=NN(c2cccc(C#CCNC(=O)COCCOCC(=O)Nc3cccc4c3C(=O)N(C3CCC(=O)NC3=O)C4=O)c2)C(=O)C1C(=O)Nc1cccc(C(C)(F)F)c1 (stereo not drawn) [compound 381],0.01 to 6 nM
2,CC1=NN(c2ccc(OC(F)F)c(-c3noc(C)n3)c2)C(=O)C1C(=O)Nc1cccc(C(C)(F)F)c1 (stereo not drawn) [compound 407],0.01 to 6 nM
3,"Cc1c(C(=O)Nc2ccccc2)c(=O)n(-c2ccccc2)n1C [compound 190, 1,5-dimethyl-3-oxo-N,2-diphenyl-2,3-dihydro-1H-pyrazole-4-carboxamide]",> 100000 nM
4,CC1=NN(c2cc(-c3ccccc3)cc(-c3ccsc3)c2)C(=O)C1C(=O)Nc1cccc(C(C)(F)F)c1 (stereo not drawn) [compound 372],0.01 to 6 nM
5,COc1ccc(N2N=C(C)C(C(=O)Nc3cccc(C(C)(F)F)c3)C2=O)cc1-c1ccccc1 (stereo not drawn) [compound 452],0.01 to 6 nM
6,CC1=NN(c2cccc(Br)c2)C(=O)C1C(=O)Nc1cccc(C(C)(F)F)c1 (stereo not drawn) [compound 404],0.01 to 6 nM
7,COc1ccc(N2N=C(C)C(C(=O)Nc3cccc(C(C)(F)F)c3)C2=O)cc1-c1ccc(-c2ccccc2)cc1 (stereo not drawn) [compound 396],6 to 100 nM
8,"CC1=NN(c2cccnc2)C(=O)C1C(=O)Nc1ccccc1 (stereo not drawn) [compound 195, 3-methyl-5-oxo-N-phenyl-1-(pyridin-3-yl)-4,5-dihydro-1H-pyrazole-4-carboxamide]",> 100000 nM
9,CC1=NN(c2ccc(OC(F)F)c(-c3ncco3)c2)C(=O)C1C(=O)Nc1cccc(C(C)(F)F)c1 (stereo not drawn) [compound 355],0.01 to 6 nM
10,CC1=NN(c2ccc(Br)cc2)C(=O)C1C(=O)Nc1cccc(C(C)(F)F)c1 (stereo not drawn) [compound 422],0.01 to 6 nM
11,CC1=NN(c2ccccc2)C(=O)C1C(=O)Nc1cccc(-c2nnc[nH]2)c1 (stereo not drawn) [compound 174],100 to 1000 nM
12,COc1ccc(N2N=C(C)C(C(=O)Nc3cccc(C(C)(F)F)c3)C2=O)c(C(C)(C)C)c1 (stereo not drawn) [compound 460],0.01 to 6 nM
13,CC1=NN(c2cccc(C#CCNC(=O)COCCOCCOCCOCC(=O)Nc3ccc4c(c3)C(=O)N(C3CCC(=O)NC3=O)C4=O)c2)C(=O)C1C(=O)Nc1cccc(C(C)(F)F)c1 (stereo not drawn) [compound 379],0.01 to 6 nM
14,CC1=NN(c2ccc(OC(F)F)cc2)C(=O)C1C(=O)Nc1cc(C(C)(F)F)cc2c1COC2 (stereo not drawn) [compound 397],100 to 1000 nM and 6 to 100 nM
15,CC1=NN(c2ccc(OC(F)F)c(-c3ccccn3)c2)C(=O)C1C(=O)Nc1cccc(C(C)(F)F)c1 (stereo not drawn) [compound 438],0.01 to 6 nM
16,CC1=NN(c2ccc(OC(F)(F)F)cc2)C(=O)C1C(=O)Nc1csc(C(C)(F)F)c1 (stereo not drawn) [compound 295],6 to 100 nM
17,CC1=NN(c2ccc(OC3CCCC3)cc2)C(=O)C1C(=O)Nc1cccc(C(C)(F)F)c1 (stereo not drawn) [compound 446],0.01 to 6 nM
18,CC(=O)NS(=O)(=O)c1cccc(N2N=C(C)C(C(=O)Nc3cccc(C(C)(F)F)c3)C2=O)c1 (stereo not drawn) [compound 293],6 to 100 nM
19,"CCc1cccc(NC(=O)C2C(=O)N(c3ccccc3)N=C2Cc2ccccc2)c1 (stereo not drawn) [compound 129, 3-benzyl-N-(3-ethylphenyl)-5-oxo-1-phenyl-4,5-dihydro-1H-pyrazole-4-carboxamide]",1000 to 100000 nM
20,CC1=NN(c2cccc(CN)c2)C(=O)C1C(=O)Nc1cccc(C(C)(F)F)c1 (stereo not drawn) [compound 335],6 to 100 nM

row,Structure (SMILES),IC50
1,CC1=NN(c2ccc(C(F)(F)F)cc2)C(=O)C1C(=O)Nc1cccc(-c2ncco2)c1 (stereo not drawn) [compound 270],100 to 1000 nM
2,CCC(F)(F)c1cccc(NC(=O)C2C(=O)N(c3ccc(OC(F)F)c(-c4ccccn4)c3)N=C2C)c1 (stereo not drawn) [compound 377],0.01 to 6 nM
3,CC1=NN(c2ccc(OC(F)F)cc2)C(=O)C1C(=O)Nc1ccc2[nH]ccc2c1 (stereo not drawn) [compound 347],100 to 1000 nM
4,CC1=NN(c2ccc3[nH]cnc3c2)C(=O)C1C(=O)Nc1cccc(C(C)(F)F)c1 (stereo not drawn) [compound 405],6 to 100 nM
5,N#Cc1ccc(OCCNC(=O)C(N)c2ccccc2)cc1 (stereo not drawn) [compound 180],> 100000 nM
6,COc1ccc(N2N=C(C)C(C(=O)Nc3cccc(-c4ncco4)c3)C2=O)cc1 (stereo not drawn) [compound 256],6 to 100 nM
7,CC1=NN(c2ccc(OC(F)F)cc2)C(=O)C1C(=O)Nc1cc(C(C)(F)F)ccc1CO (stereo not drawn) [compound 459],0.01 to 6 nM
8,CC1=NN(c2cc(Cc3ccc(Cl)cc3)cc(-c3cccnc3)c2)C(=O)C1C(=O)Nc1cccc(C(C)(F)F)c1 (stereo not drawn) [compound 384],6 to 100 nM
9,CC1=NN(c2ccc(OC(F)F)cc2)C(=O)C1C(=O)N(C)c1cccc(Cl)c1 (stereo not drawn) [compound 395],100 to 1000 nM
10,"CC1=NN(c2ccccc2)C(=O)C1C(=O)Nc1cccc(C2CCCC2)c1 (stereo not drawn) [compound 146, N-(3-cyclopentylphenyl)-3-methyl-5-oxo-1-phenyl-4,5-dihydro-1H-pyrazole-4-carboxamide]",100 to 1000 nM
11,"CC1=NN(c2ccccc2)C(=O)C1C(=O)NC(=O)c1ccccc1 (stereo not drawn) [compound 207, N-benzoyl-3-methyl-5-oxo-1-phenyl-4,5-dihydro-1H-pyrazole-4-carboxamide]",1000 to 100000 nM
12,COc1ccc(N2N=C(C)C(C(=O)Nc3cccc(C(C)(F)F)c3)C2=O)cc1-c1cccnc1 (stereo not drawn) [compound 445],0.01 to 6 nM
13,CC1=NN(c2cccc(C#CCNC(=O)COCCOCCOCCOCCOCC(=O)Nc3cccc4c3C(=O)N(C3CCC(=O)NC3=O)C4=O)c2)C(=O)C1C(=O)Nc1cccc(C(C)(F)F)c1 (stereo not drawn) [compound 378],0.01 to 6 nM
14,CC1=NN(c2ccc(Cc3ccccc3)c(-c3cccnc3)c2)C(=O)C1C(=O)Nc1cccc(C(C)(F)F)c1 (stereo not drawn) [compound 374],0.01 to 6 nM
15,COc1ccc(N2N=C(C)C(C(=O)Nc3cccc(C(C)(F)F)c3)C2=O)c(C)c1 (stereo not drawn) [compound 302],100 to 1000 nM
16,"CC1=NN(c2ccccc2)C(=O)C1C(=O)Nc1nccs1 (stereo not drawn) [compound 217, 3-methyl-5-oxo-1-phenyl-N-(thiazol-2-yl)-4,5-dihydro-1H-pyrazole-4-carboxamide]",> 100000 nM
17,CC1=NN(c2ccc(OC(F)F)cc2)C(=O)C1C(=O)Nc1cccc(C(C)(F)C(C)C)c1 (stereo not drawn) [compound 409],100 to 1000 nM
18,"CC1=NN(c2ccccc2)C(=O)C1C(=O)Nc1cccc2ccccc12 (stereo not drawn) [compound 185, 3-methyl-N-(naphthalen-1-yl)-5-oxo-1-phenyl-4,5-dihydro-1H-pyrazole-4-carboxamide]",1000 to 100000 nM
19,CC1=NN(c2ccc(OC(F)F)cc2)C(=O)C1C(=O)Nc1cccc(C(F)(F)C(C)C)c1 (stereo not drawn) [compound 362],6 to 100 nM
20,"CC(=O)c1ccc(NC(=O)C2C(=O)N(c3ccccc3)N=C2C)cc1 (stereo not drawn) [compound 203, N-(4-acetylphenyl)-3-methyl-5-oxo-1-phenyl-4,5-dihydro-1H-pyrazole-4-carboxamide]",1000 to 100000 nM

row,Structure (SMILES),IC50
1,CC1=NN(c2ccc(OC(F)F)c(-c3ncc(C)o3)c2)C(=O)C1C(=O)Nc1cccc(C(C)(F)F)c1 (stereo not drawn) [compound 415],0.01 to 6 nM
2,CC1=NN(c2ccc(OC(C)(C)C)cc2)C(=O)C1C(=O)Nc1cccc(C(C)(F)F)c1 (stereo not drawn) [compound 441],0.01 to 6 nM
3,"CC1=NN(c2ccccc2)C(=O)C1C(=O)NC(C)C (stereo not drawn) [compound 200, N-isopropyl-3-methyl-5-oxo-1-phenyl-4,5-dihydro-1H-pyrazole-4-carboxamide]",> 100000 nM
4,"COc1ccc(NC(=O)C2C(=O)N(c3ccccc3)N=C2C)cc1 (stereo not drawn) [compound 188, N-(4-methoxyphenyl)-3-methyl-5-oxo-1-phenyl-4,5-dihydro-1H-pyrazole-4-carboxamide]",1000 to 100000 nM
5,CCC(F)(F)c1cccc(NC(=O)C2C(=O)N(c3ccc(OC)c(-c4ccccc4)c3)N=C2C)c1 (stereo not drawn) [compound 368],0.01 to 6 nM
6,CC1=NN(c2cc(Br)cc(-c3ccccc3)c2)C(=O)C1C(=O)Nc1cccc(C(C)(F)F)c1 (stereo not drawn) [compound 389],0.01 to 6 nM
7,COc1ccc(N2N=C(C)C(C(=O)Nc3cccc(-c4ncco4)c3)C2=O)cn1 (stereo not drawn) [compound 245],6 to 100 nM
8,CC1=NN(c2ccc(OC(F)F)c(-c3cnccn3)c2)C(=O)C1C(=O)Nc1cccc(C(C)(F)F)c1 (stereo not drawn) [compound 437],0.01 to 6 nM
9,CC1=NN(c2ccc(OC(F)(F)F)cc2)C(=O)C1C(=O)Nc1cc(C(C)(F)F)cs1 (stereo not drawn) [compound 296],6 to 100 nM
10,CC1=NN(c2cccc(C(=O)OC(C)C)c2)C(=O)C1C(=O)Nc1cccc(-c2ncco2)c1 (stereo not drawn) [compound 238],6 to 100 nM
11,"CC1=NN(c2ccc(S(=O)(=O)N(C)C)cc2)C(=O)C1C(=O)Nc1ccccc1 (stereo not drawn) [compound 110, 1-(4-(N,N-dimethylsulfamoyl)phenyl)-3-methyl-5-oxo-N-phenyl-4,5-dihydro-1H-pyrazole-4-carboxamide]",100 to 1000 nM
12,"CCc1cccc(NC(=O)C2C=NN(c3ccccc3)C2=O)c1 (stereo not drawn) [compound 133, N-(3-ethylphenyl)-5-oxo-1-phenyl-4,5-dihydro-1H-pyrazole-4-carboxamide]",100 to 1000 nM
13,"CC1=NN(c2ccccc2)C(=O)C1C(=O)NC1CCOC1 (stereo not drawn) [compound 106, 3-methyl-5-oxo-1-phenyl-N-(tetrahydrofuran-3-yl)-4,5-dihydro-1H-pyrazole-4-carboxamide]",> 100000 nM
14,CC1=NN(c2ccccc2)C(=O)C1C(=O)Nc1cscc1C (stereo not drawn) [compound 283],100 to 1000 nM
15,"CC1=NN(c2ccccc2)C(=O)C1C(=O)Nc1cccc(C(=O)C(F)(F)F)c1 (stereo not drawn) [compound 152, 3-methyl-5-oxo-1-phenyl-N-(3-(2,2,2-trifluoroacetyl)phenyl)-4,5-dihydro-1H-pyrazole-4-carboxamide]",1000 to 100000 nM
16,"CCc1cccc(NC(=O)C2C(=O)N(c3ccc(OCC4CC4)cc3)N=C2C)c1 (stereo not drawn) [compound 143, 1-(4-(cyclopropylmethoxy)phenyl)-N-(3-ethylphenyl)-3-methyl-5-oxo-4,5-dihydro-1H-pyrazole-4-carboxamide]",6 to 100 nM
17,"CC1=NN(c2ccccc2)C(=O)C1C(=O)Nc1cccc(CO)c1 (stereo not drawn) [compound 111, N-(3-(hydroxymethyl)phenyl)-3-methyl-5-oxo-1-phenyl-4,5-dihydro-1H-pyrazole-4-carboxamide]",1000 to 100000 nM
18,"CCc1cccc(NC(=O)C2C(=O)N(c3ccccc3)N=C2c2ccncc2)c1 (stereo not drawn) [compound 137, N-(3-ethylphenyl)-5-oxo-1-phenyl-3-(pyridin-4-yl)-4,5-dihydro-1H-pyrazole-4-carboxamide]",1000 to 100000 nM
19,"CCc1cccc(NC(=O)C2C(=O)N(c3ccc(C(F)(F)F)cc3)N=C2C)c1 (stereo not drawn) [compound 127, N-(3-ethylphenyl)-3-methyl-5-oxo-1-(4-(trifluoromethyl)phenyl)-4,5-dihydro-1H-pyrazole-4-carboxamide]",6 to 100 nM
20,COc1ccc(N2N=C(C)C(C(=O)Nc3cccc(C(C)(F)F)c3)C2=O)cc1O (stereo not drawn) [compound 281],0.01 to 6 nM
